Measurements from ChEMBL document CHEMBL3785074, “Molecular modeling and snake venom phospholipase A2 inhibition by phenolic compounds: Structure-activity relationship” (Eur J Med Chem, 2016).
Active and inactive are the calls of the source. No cut-off for these calls is given here.

How the values were obtained:
[1] = Protective activity against Daboia russellii venom-induced hemorrhage in Swiss albino mouse at 6 mmol, iv assessed as hemorhagic lesion administered immediately after venom injection measured after 24 hrs relative to untreated control; type: functional, Daboia russelii
[2] = (§1) Protective activity against Daboia russellii venom-induced hemorrhage in intradermally dosed Swiss albino mouse at 6 mmol assessed as hemorhagic lesion preincubated with venom for 1 hr followed by administration to mouse measured after 24 hrs relative to untreated control; type: functional, Daboia russelii
[3] = Protective activity against Daboia russellii venom-induced mortality in Swiss albino mouse at 6 mmol, iv administered immediately after venom injection measured after 24 hrs relative to untreated control; type: functional, Daboia russelii
[4] = Protective activity against Naja kaouthia venom-induced mortality in Swiss albino mouse at 6 mmol, iv by measuring venom LD50 preincubated with venom for 1 hr followed by administration to mouse measured after 24 hrs (reference value: 2.82 ug); type: functional
[5] = Protective activity against Daboia russellii venom-induced mortality by measuring venom LD50 in Swiss albino mouse at 6 mmol, iv preincubated with venom for 1 hr followed by administration to mouse measured after 24 hrs (reference value: 2.28 ug); type: functional, Daboia russelii
[6] = Protective activity against Naja kaouthia venom-induced mortality in Swiss albino mouse at 6 mmol, iv administered immediately after venom injection measured after 24 hrs relative to untreated control; type: functional
[7] = Protective activity against Naja kaouthia venom-induced mortality in Swiss albino mouse at 6 mmol, iv by measuring venom LD50 administered immediately after venom injection measured after 24 hrs (reference value: 2.82 ug); type: functional
[8] = Lipophilicity, log P of compound; type: physicochemical; details: octanol/water; read-out: logP
[9] = Protective activity against Daboia russellii venom-induced mortality in Swiss albino mouse at 6 mmol, iv preincubated with venom for 1 hr followed by administration to mouse measured after 24 hrs relative to untreated control; type: functional, Daboia russelii
[10] = Protective activity against Daboia russellii venom-induced hemorrhage in Swiss albino mouse at 6 mmol, iv assessed as hemorhagic lesion by measuring […] administered immediately after venom injection measured after 24 hrs (Rvb =5 ug); type: functional, Daboia russelii
[11] = as §1, with “lesion by measuring minimal […] dose” for “lesion”, “(reference value: 5 ug)” for “relative to untreated control”; type: functional, Daboia russelii
[12] = Protective activity against Daboia russellii venom-induced mortality in Swiss albino mouse at 6 mmol, iv by measuring venom LD50 administered immediately after venom injection measured after 24 hrs (reference value: 2.28ug); type: functional, Daboia russelii
[13] = Protective activity against Naja kaouthia venom-induced mortality in Swiss albino mouse at 6 mmol, iv preincubated with venom for 1 hr followed by administration to mouse measured after 24 hrs relative to untreated control; type: functional
[14] = tested on: Naja kaouthia; test: Protective activity against Naja kaouthia venom-induced mortality in Swiss albino mouse at 12 mmol, iv by measuring venom LD50 administered immediately after venom injection measured after 24 hrs (reference value: 2.82 ug); type: functional, organism-based
[15] = as §1, with “12” for “6”, “lesion by measuring minimal […] dose” for “lesion”, “(reference value: 5 ug)” for “relative to untreated control”; type: functional, Daboia russelii
[16] = Protective activity against Naja kaouthia venom-induced mortality in Swiss albino mouse at 12 mmol, iv by measuring venom LD50 preincubated with venom for 1 hr followed by administration to mouse measured after 24 hrs (reference value: 2.82 ug); type: functional
[17] = Protective activity against Daboia russellii venom-induced hemorrhage in Swiss albino mouse at 12 mmol, iv assessed as hemorhagic lesion by measuring […] administered immediately after venom injection measured after 24 hrs (Rvb =5 ug); type: functional, Daboia russelii
[18] = Protective activity against Daboia russellii venom-induced mortality by measuring venom LD50 in Swiss albino mouse at 12 mmol, iv preincubated with venom for 1 hr followed by administration to mouse measured after 24 hrs (reference value: 2.28 ug); type: functional, Daboia russelii
[19] = Protective activity against Daboia russellii venom-induced mortality in Swiss albino mouse at 12 mmol, iv by measuring venom LD50 administered immediately after venom injection measured after 24 hrs (reference value: 2.28ug); type: functional, Daboia russelii

Structure (SMILES)	fold change (FC) [1]	fold change (FC) [2]	fold change (FC) [3]	LD50 [4] [µg]	LD50 [5] [µg]	fold change (FC) [6]	LD50 [7] [µg]	logP [8]	fold change (FC) [9]	MHC [10] [µg]	MHC [11] [µg]	LD50 [12] [µg]	fold change (FC) [13]	LD50 [14]	MHC [15] [µg]	LD50 [16] [µg]	MHC [17] [µg]	LD50 [18] [µg]	LD50 [19] [µg]
COc1ccc(C(=O)O)c(O)c1 [4-METHOXYSALICYLIC ACID]	2	4	3.75	9	22	2	10	1.21	9.8	10	20	150	3.2						
CC(=O)Oc1ccccc1C(=O)O [ASPIRIN]								1.24						inactive	100	3	10	6.6	50
